Test results reported in US20210023099A1, “COMBINATION THERAPY WITH A BET INHIBITOR AND A PROTEASOME INHIBITOR” (Hoffmann-La Roche Inc., priority 2018, published 2021).
Values joined by “and” are separate entries in the source; they are usually repeats but may differ in a detail not shown here. Equal entries are not always repeated.

Legend:
OPM-2 MM xenografts = assay: In vivo antitumor efficacy against OPM-2 MM xenografts; conditions: Day 31, s.c. OPM-2 xenografts in female Scid beige mice, bortezomib 0.5 mg/kg iv 2xQ7D; for Tumor Regression % / TGI % (Tumor growth inhibition): RG6146 30 mg/kg ip QD D17-31; for TGI % (Tumor growth inhibition): vs control; for npTCR (non-parametric Treatment to Control Ratio) / Tumor free animal (complete tumor remission): RG6146 30 mg/kg ip QD; for npTCR (non-parametric Treatment to Control Ratio): CI printed in the lines below; for Tumor free animal (complete tumor remission): animals tumor free / group
Description: The in vivo antitumor efficacy of BET inhibitor RG6146 in combination with proteasome inhibitor bortezomib was evaluated against OPM-2 MM xenografts.
(§1) The original OPM-2 human Multiple Myeloma cell line (MM) was purchased from ATCC (Manassas, Va., USA). Expansion of tumor cells for the transplantation was done by the TAP CompacT CellBase Cell Culture Roboter according to the protocol. Tumor cell line was routinely cultured in RPMI 1640 medium, FCS 10% and L-Glutamin 2 mM at 37° C. in a water-saturated atmosphere at 5% CO2. Culture passage was performed with trypsin/EDTA 1× splitting twice/week and passage 2 used for transplantation.
(§2) Female Scid beige mice (Charles River), age 6-7 weeks at arrival, maintained under specific-pathogen-free condition with daily cycles of 12 h light/12 h darkness according to committed guidelines. Experimental study protocol was reviewed and approved by local government. After arrival animals were maintained in animal facility for one week to get accustomed to new environment and for observation. Continuous health monitoring was carried out on regular basis. Diet food and autoclaved water were provided ad libitum.
(§3) Animals were controlled daily for clinical symptoms and detection of adverse effects. For monitoring throughout the experiment body weight of animals was documented.
(§4) Animal treatment started after randomisation when median tumor size was about 115 mm^3. The vehicle was administered ip once daily (QD) on D17-31. BET inhibitor RG6146 ip treatment at 30 mg/kg was done as single agent and in combination on D17-31. Finally, proteasome inhibitor bortezomib was given i.v. at 0.5 mg/kg as single agent and in combination twice a week for two weeks.
(§5) OPM-2 human MM cells were s.c. inoculated with Matrigel onto female Scid beige mice. Tumor bearing mice were randomized 17 days later to the indicated study groups and compound treatment initiated. Tumor bearing animals were treated with vehicle control, with the BET inhibitor RG6146 at 30 mg/kg or with proteasome inhibitor bortezomib at 0.5 mg/kg as single agent and in combination thereof.

MM1S MM xenografts = assay: In vivo antitumor efficacy against MM1S MM xenografts; conditions: Day 28, s.c. MM1s xenografts in female CIEA NOG mice, bortezomib 0.5 mg/kg iv 2 x Q7D; for Tumor Regression % / TGI % (Tumor growth inhibition): RG6146 30 mg/kg ip QD D14-28; for TGI % (Tumor growth inhibition): vs control; for npTCR (non-parametric Treatment to Control Ratio): RG6146 30 mg/kg ip QD, CI printed in the line below
Description: The in vivo antitumor efficacy of BET inhibitor RG6146 in combination with proteasome inhibitor bortezomib was evaluated against MM1S MM xenografts.
as §1, with “MM1s” for “OPM-2”
as §2, with “CIEA NOG” for “Scid beige”, “(Taconic),” for “(Charles River),”, “5-6” for “6-7”
as §3
as §4, with “100” for “115”, “D14-28.” for “D17-31.”
as §5, with “MM1s” for “OPM-2”, “CIEA-NOG” for “Scid beige”, “14” for “17”

Row | SMILES | Tumor Regression % (OPM-2 MM xenografts) | TGI % (Tumor growth inhibition) (OPM-2 MM xenografts) | npTCR (non-parametric Treatment to Control Ratio) (OPM-2 MM xenografts) | Tumor free animal (complete tumor remission) (OPM-2 MM xenografts) | Tumor Regression % (MM1S MM xenografts) | TGI % (Tumor growth inhibition) (MM1S MM xenografts) | npTCR (non-parametric Treatment to Control Ratio) (MM1S MM xenografts)
1 | Cc1sc2c(c1C)C(c1ccc(Cl)cc1)=N[C@@H](CC(=O)NCCCN1CCN(C)CC1)c1nnc(C)n1-2 [RG6146, 2-[(S)-4-(4-chloro-phenyl)-2,3,9-trimethyl-6H-1-thia-5,7,8,9a-tetraaza-cyclopenta[e]azulen-6-yl]-N-[3-(4-methyl-piperazin-1-yl)-propyl]-acetamide] | 85% | >100% | 0.008 | 5 out of 10 and 5/10 | 0% | 83% | 0.29
2 | CC(C)C[C@H](NC(=O)[C@H](Cc1ccccc1)NC(=O)c1cnccn1)B(O)O [bortezomib, [(1R)-3-methyl-1-[[(2S)-3-phenyl-2-(pyrazine-2-carbonylamino)propanoyl]amino]butyl]boronic acid, reference compound] | 0% | 60% | 0.34 | 0/10 | 0% | 29% | 0.75
